Results: patent publication US8173633B2, “Protein kinase C activity enhancer containing alkyl ether derivative or salt thereof” (Toyama Chemical Co., Ltd., priority 2006, dated 2012)

Target: T1, PKCε (Rattus norvegicus, UniProt P09216)
T1 construct: The cerebral cortex was removed from 18-day fetuses of Wistar/ST rats; endogenous in cells; host or cells: primary cultured cerebral cortex cells from 18-day fetuses of Wistar/ST rats
T1 sequence (P09216 1-737): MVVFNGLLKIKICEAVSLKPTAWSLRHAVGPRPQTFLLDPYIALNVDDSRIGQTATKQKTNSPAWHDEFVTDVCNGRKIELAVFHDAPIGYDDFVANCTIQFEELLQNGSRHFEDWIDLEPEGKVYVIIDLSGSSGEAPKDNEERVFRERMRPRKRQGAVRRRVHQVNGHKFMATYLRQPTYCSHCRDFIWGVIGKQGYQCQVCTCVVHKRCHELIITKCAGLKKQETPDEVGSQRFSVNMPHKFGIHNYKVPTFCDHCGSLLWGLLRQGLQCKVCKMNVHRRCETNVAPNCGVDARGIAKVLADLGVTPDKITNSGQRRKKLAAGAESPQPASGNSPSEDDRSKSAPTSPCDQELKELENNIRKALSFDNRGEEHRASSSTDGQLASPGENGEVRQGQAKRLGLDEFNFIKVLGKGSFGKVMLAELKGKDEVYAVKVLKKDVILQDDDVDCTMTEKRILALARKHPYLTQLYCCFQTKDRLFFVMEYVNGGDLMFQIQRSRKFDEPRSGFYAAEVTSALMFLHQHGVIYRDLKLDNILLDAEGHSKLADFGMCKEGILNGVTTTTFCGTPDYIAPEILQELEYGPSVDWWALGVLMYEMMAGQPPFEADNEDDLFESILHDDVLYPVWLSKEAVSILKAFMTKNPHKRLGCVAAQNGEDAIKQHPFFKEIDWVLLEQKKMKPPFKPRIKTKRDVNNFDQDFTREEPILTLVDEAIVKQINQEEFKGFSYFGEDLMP
Assay: PKC activity enhancing effect in cultured cells (PKCε migration from cytosol to membrane fraction, western blotting)
Type: cell-based, Wistar/ST rats
Details: cultured fetal rat cerebral cortex cells, 0.1 μmol/L in terms of T-817, FIG. 1
Experimental: The PKC activity was determined, according to the method of Etcheberrigaray et al. (Proceedings of the National Academy of Sciences of the United States of America, 2004, Vol. 101, No. 30, p. 11141-11146), as applicable. At the time of activation, PKC migrates from the cytoplasm to membranes. The PKC level in the membrane fraction over that in the cytosol fraction was taken as the index of PKC activation. In this experiment, the activity of PKCε, a known isoform of PKC, was measured.
Cultured cells were prepared following the method of Hirata et al. (J. Pharmacol. Exp. Ther., 2005, Vol. 314, No. 1, p. 252-259). […]
On Day 8 from the start of the culturing, T-817MA was added to the cells to a final concentration of 0.1 μmol/L, in terms of T-817, After this addition, the cells were washed with PBS at 0 (untreated), 1, 2 and 4 hours. […] The protein concentration in the cytosol fraction and the membrane fraction was measured, and the protein content in each sample was adjusted to a certain constant level with the extraction buffer or the extraction buffer containing Triton X-100, These samples were then diluted with electrophoresis buffer containing mercaptoethanol (manufactured by Wako Pure Chemical Industries Ltd.) and SDS-PAGE (40 mA, 30 minutes) was carried on 10% polyacrylamide gel. […]

PKCε migration from the cytoplasm to membranes (index of PKC activation) (2 hours after treatment): migrated from the cytoplasm to membranes | PKCε migration from the cytoplasm to membranes (index of PKC activation) (4 hours after treatment): migrated from the cytoplasm to membranes
SMILES: O=C(O)/C=C\C(=O)O.OC1CN(CCCOCCc2ccc3sccc3c2)C1 [T-817MA]
